Data reported in patent publication US9890103B2, “Process for the production of (meth)acrylic acid and derivatives and polymers produced therefrom” (Lucite International UK Limited, priority 2011, dated 2018).

Tests used:
[1] = Extraction of mono- and dibasic acids from 0.1M aqueous solution into toluene or MMA/toluene mixtures; format: physicochemical; conditions: for degree of extraction: equal volume, in %; for Fraction Transferred to Toluene: each acid 0.1M in water, equal volume of toluene
Protocol: (§1) The following experimental conditions were used unless indicated otherwise:— • 0.1M Acids • 1:1 vol:vol aq:solvent • Room Temperature • 1 minutes agitation time; 5 min settling time • Solvent is toluene unless where stated • Analysis by HPLC
Monobasic and dibasic acids likely to be present in aqueous solution following partial decomposition of mono and dicarboxylic acids expected to be found from decomposition of dibasic or tribasic acids were compared for their solubility in toluene.
Each acid, initially at 0.1M solution in water was separately tested for solubility in an equal volume of toluene.
Aqueous solutions were prepared of each of the dicarboxylic acids exemplified in comparative example 2. These were extracted with an equal volume of solvent mixtures of toluene and methyl methacrylate (MMA).
In order to compare the solubilities in the organic solvents in terms of partition coefficients each sample was converted to a partition coefficient based on the equation: [MAA]solv=K[MAA]^2aq

[2] = Extraction of acrylic and maleic acid into toluene/butanone mixtures; format: physicochemical; conditions: 0.1M aq solution, equal volume
Protocol: as §1
In order to increase the solubility of the AA in the organic layer a higher polarity is likely to be required. The extraction of a 0.1M aq AA solution was studied with an equal volume of a mixture between toluene and butanone.

[3] = 2-butanone:o-xylene 75:25; reported maximum; cited from earlier work
[4] = MAA extraction into 2-butanone/o-xylene 75:25; format: physicochemical; conditions: 2-butanone:o-xylene 75:25
From the text: The efficiency of MAA extraction into a mixture of 2-butanone and o-xylene in the ratio 75:25 was studied.

[5] = Concentration dependence of MAA extraction into toluene; format: physicochemical; conditions: toluene/water, fitted to table 3 data
Protocol: as §1
A series of different concentrations of MAA in aqueous solution were extracted into toluene (1:1 by volume vs aqueous solution).
The fraction transferred increases with the concentration of MAA. The data from table 3 were plotted according to the equation: [MAA]tol=K[MAA]^2aq and the value K in the equation was evaluated as 14.6. The results are plotted in FIG. 1.

[6] = Solvent screen: transfer of methacrylic acid from aqueous solution into organic solvents; format: physicochemical; conditions: 0.1M MAA aq, 1:1 vol:vol, room temperature
Protocol: as §1
A series of solvents were tested to examine the extent of transfer of methacrylic acid from an aqueous solution using the above procedure.

[7] = MAA extraction into toluene with added NaOH and added di/tricarboxylic acids; format: physicochemical; conditions: for amount of MAA transferred into toluene: 0.1M MAA aq, equivalent volume toluene
Protocol: The following experimental conditions were used unless indicated otherwise:— • 0.1M Acids • 1:1 vol:vol aq:solvent • Room Temperature • 1 minutes agitation time; 5 min settling time • Solvent is toluene unless where stated • Analysis by HPLC […] The results are shown in the first two rows of table 5 […] Very similar results were obtained. […] The aqueous solution was extracted with an equal volume of toluene at room temperature.

[8] = Fraction of MMA in MMA/Toluene solvent mixture 0
[9] = Fraction of MMA in MMA/Toluene solvent mixture 0.1
[10] = Fraction of MMA in MMA/Toluene solvent mixture 0.2
[11] = Fraction of MMA in MMA/Toluene solvent mixture 0.3
[12] = Fraction of MMA in MMA/Toluene solvent mixture 0.4
[13] = Fraction of MMA in MMA/Toluene solvent mixture 0.5
[14] = Fraction of MMA in MMA/Toluene solvent mixture 0.6
[15] = Fraction of MMA in MMA/Toluene solvent mixture 0.7
[16] = Fraction of MMA in MMA/Toluene solvent mixture 0.8
[17] = Fraction of MMA in MMA/Toluene solvent mixture 0.9
[18] = Fraction of MMA in MMA/Toluene solvent mixture 1

SMILES	degree of extraction [1, 8]	degree of extraction [1, 9]	degree of extraction [1, 10]	degree of extraction [1, 11]	degree of extraction [1, 12]	degree of extraction [1, 13]	degree of extraction [1, 14]	degree of extraction [1, 15]	degree of extraction [1, 16]	degree of extraction [1, 17]	degree of extraction [1, 18]	Fraction Transferred to Toluene [1]	also measured
C/C(=C\C(=O)O)C(=O)O [MC, Mesaconic Acid]	0.64	1.72	4.5	8.26	13.02	20.56	27.82	38.06	47.19	56.33	63.45	0.64%	–
O=C(O)/C=C\C(=O)O [Maleic acid]	–	–	–	–	–	–	–	–	–	–	–	–	% extracted ([2]; 0 % Butanone in toluene): 0%; % extracted ([2]; 10 % Butanone in toluene): 0.32%; % extracted ([2]; 20 % Butanone in toluene): 1.46%; % extracted ([2]; 30 % Butanone in toluene): 3.41%; % extracted ([2]; 40 % Butanone in toluene): 5.19%; % extracted ([2]; 50 % Butanone in toluene): 10.62%; % extracted ([2]; 60 % Butanone in toluene): 10.77%; % extracted ([2]; 70 % Butanone in toluene): 15.01%; % extracted ([2]; 80 % Butanone in toluene): 19.88%; % extracted ([2]; 90 % Butanone in toluene): 27.09%; % extracted ([2]; 100 % Butanone): 34.32%
C/C=C/C(=O)O [CT, Crotonic Acid]	40.11	46.72	49.88	53.62	56.56	61.15	64.67	68.07	70.86	73.21	75.05	40.11%	–
C=CC(=O)O [Acrylic acid]	–	–	–	–	–	–	–	–	–	–	–	–	% extracted ([2]; 0 % Butanone in toluene): 5.01%; % extracted ([2]; 10 % Butanone in toluene): 14.57%; % extracted ([2]; 20 % Butanone in toluene): 25.26%; % extracted ([2]; 30 % Butanone in toluene): 35.45%; % extracted ([2]; 40 % Butanone in toluene): 44.14%; % extracted ([2]; 50 % Butanone in toluene): 53.47%; % extracted ([2]; 60 % Butanone in toluene): 57.31%; % extracted ([2]; 70 % Butanone in toluene): 63.39%; % extracted ([2]; 80 % Butanone in toluene): 67.47%; % extracted ([2]; 90 % Butanone in toluene): 70.04%; % extracted ([2]; 100 % Butanone): 65.56%
C=C(C)C(=O)O [MAA, Methacrylic Acid]	54.4	58.85	63.01	67.25	70.31	74.28	76.77	79.42	81.42	83.02	84.28	54.4%	distribution coefficient for MAA, K [3]: ~7.00; MAA extracted into the organic phase [4]: roughly 80%; K in [MAA]tol=K[MAA]^2aq [5]: 14.6; Average % Transfer ([6]; solvent Benzene): 50.1%; Average % Transfer ([6]; solvent Cyclohexane): 26.9%; Average % Transfer ([6]; solvent Hexane): 27.6%; Average % Transfer ([6]; solvent MMA): 84.3%; Average % Transfer ([6]; solvent Mixed Xylenes): 45.3%; Average % Transfer ([6]; solvent Pentane): 28.3%; Average % Transfer ([6]; solvent Toluene): 48.2%; MAA extraction into toluene ([7]; 0.1M MAA + 0.05M NaOH + itaconic acid to 0.1M): 44.7%; amount of MAA transferred into toluene ([7]; after addition of 0.05M sodium hydroxide): 26%; amount of MAA transferred into toluene ([7]; before NaOH addition): 48%
CC(=O)C(=O)O [PY, Pyruvic Acid]	0	0	0.3	0.7	1.17	2.07	3.01	4.17	5.57	8.05	10.71	0%	–
CC(C)(O)C(=O)O [HIB, Hydroxyisobutyric Acid]	4.21	4.8	5.14	6.38	4.82	5.76	7.32	19.71	21.47	23.32	23.9	4.21%	–
C=C(CC(=O)O)C(=O)O [IC, Itaconic Acid]	0	0	0.29	0.81	1.69	2.89	4.34	6.56	9.57	13.1	17.58	0%	–
